Measured values as given in the supplement of paper PMC10307832.

Legend:
Assay in all cases: relative viability (nuclei count vs DMSO), 5 days (fraction); higher = more cells survive
[1] = compound: CN(C)C(=N)NC(=N)N [Metformin] + CC1(C)CCC(c2ccc(Cl)cc2)=C(CN2CCN(c3ccc(C(=O)NS(=O)(=O)c4ccc(N[C@H](CCN5CCOCC5)CSc5ccccc5)c(S(=O)(=O)C(F)(F)F)c4)cc3)CC2)C1 [Navitoclax] (partner 0.5 µM)
How it was run: (§1)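 Values are medians from duplicate plates. Each reflects relative viability, defined as the nuclei count of treated wells over that of vehicle wells. Lung cancer cell lines in 1536-well plates were pin-tool dosed one day after seeding with one drug alone or with a fixed anchor-drug dose plus five library-drug doses (not always all listed) in √10 steps, then fixed, stained and imaged at 4× after 5 days.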

[2] = compound: CN(C)C(=N)NC(=N)N [Metformin] + C[C@]1(O)C[C@@H](c2nc(-c3ccc4ccc(-c5ccccc5)nc4c3)c3c(N)nccn32)C1 [Linsitinib] (partner 1 µM)
How it was run: as §1

[3] = compound: CN(C)C(=N)NC(=N)N [Metformin] + CC(=O)c1c(C)c2cnc(Nc3ccc(N4CCNCC4)cn3)nc2n(C2CCCC2)c1=O [Palbociclib] (partner 0.5 µM)
How it was run: as §1

[4] = compound: CN(C)C(=N)NC(=N)N [Metformin] + CC(=O)Nc1cccc(-n2c(=O)n(C3CC3)c(=O)c3c(Nc4ccc(I)cc4F)n(C)c(=O)c(C)c32)c1 [Trametinib] (partner 0.02 µM)
How it was run: as §1

Cell Line	relative viability ([1]; first compound 10 µM)	relative viability ([1]; first compound 31.62 µM)	relative viability ([1]; first compound 100 µM)	relative viability ([1]; first compound 316.23 µM)	relative viability ([1]; first compound 1000 µM)	relative viability ([2]; first compound 10 µM)	relative viability ([2]; first compound 31.62 µM)	relative viability ([2]; first compound 100 µM)	relative viability ([2]; first compound 316.23 µM)	relative viability ([2]; first compound 1000 µM)	relative viability ([3]; first compound 10 µM)	relative viability ([3]; first compound 31.62 µM)	relative viability ([3]; first compound 100 µM)	relative viability ([3]; first compound 316.23 µM)	relative viability ([3]; first compound 1000 µM)	relative viability ([4]; first compound 10 µM)	relative viability ([4]; first compound 31.62 µM)	relative viability ([4]; first compound 100 µM)	relative viability ([4]; first compound 316.23 µM)	relative viability ([4]; first compound 1000 µM)
NCI-H1755	0.821	0.897	0.912	0.89	0.935	0.842	0.84	0.871	0.843	0.914	0.411	0.397	0.43	0.433	0.416	0.683	0.626	0.656	0.682	0.676
NCI-H1792	–	0.528	0.857	0.538	0.617	–	0.742	0.803	0.632	0.664	–	0.663	0.817	0.698	0.238	0.566	0.483	0.567	0.431	0.433
NCI-H1793	0.335	0.395	0.482	0.442	0.489	1.3	1.22	1.14	1	1.16	0.297	0.39	0.387	0.353	0.361	0.432	0.454	0.413	0.45	0.507
NCI-H1915	–	0.794	0.702	0.749	0.806	–	1.22	1.15	1.14	1.11	–	0.406	0.515	0.462	0.463	–	0.302	0.302	0.289	–
NCI-H1944	0.968	1.04	1.04	0.966	1.07	1.36	1.39	1.34	1.27	1.26	0.386	0.44	0.404	0.344	0.404	0.37	0.412	0.38	0.365	0.415
NCI-H1975	1.23	1.32	1.28	1	1.23	1.09	1.26	1.07	1.18	1.31	0.438	0.682	0.584	0.591	0.644	0.356	0.325	0.387	0.326	0.373
NCI-H1993	1.04	1.04	1.28	0.968	1.25	0.719	0.73	0.838	0.686	0.705	0.63	0.701	0.739	0.576	0.67	0.477	0.634	0.497	0.425	0.611
NCI-H2009	1.19	1.16	1.21	1.17	1.07	1.22	1.17	1.17	0.781	0.9	0.194	0.321	0.228	0.122	0.202	0.366	0.362	0.387	0.36	0.384
NCI-H2023	–	0.973	0.876	–	0.567	–	0.687	0.806	–	0.515	0.321	0.341	0.3	0.285	0.237	0.5	0.563	0.516	0.415	0.467
NCI-H2085	1.08	1.12	1.05	1.07	1.11	0.822	0.8	0.765	0.844	0.875	0.475	0.447	0.469	0.435	0.453	0.541	0.58	0.446	0.542	0.631
NCI-H2087	0.951	0.86	0.96	0.782	0.834	0.609	0.908	0.805	0.712	0.782	0.263	0.226	0.268	0.218	0.235	0.232	0.222	0.18	0.152	0.254
NCI-H2126	0.788	0.834	0.842	0.771	0.787	0.633	0.735	0.687	0.703	0.721	0.399	0.349	0.307	0.322	0.328	0.517	0.538	0.563	0.504	0.587
NCI-H2228	1.02	1.04	–	0.815	1.05	0.542	0.973	–	0.583	0.889	0.626	0.782	0.747	0.526	0.946	0.699	0.681	0.398	0.434	0.553
NCI-H2347	0.633	0.694	0.802	0.746	0.716	0.753	0.89	0.973	0.862	0.943	0.443	0.453	0.404	0.382	0.408	0.291	0.289	0.26	0.265	0.258
NCI-H2405	0.869	1.26	0.988	1.07	1.09	0.845	0.92	0.981	0.882	0.436	–	0.498	0.485	0.487	0.344	–	0.744	0.635	0.688	0.555
NCI-H3122	0.937	0.955	0.969	0.933	0.89	0.89	0.98	0.949	0.96	0.92	0.174	0.188	0.228	0.191	0.184	0.163	0.21	0.258	0.188	0.209
PC-3 [JPC-3]	0.702	0.735	0.821	0.761	0.732	0.895	1.01	0.902	0.918	0.942	0.444	0.466	–	0.46	0.503	0.683	0.717	–	0.706	0.68
PC-14	0.968	0.958	0.998	1	0.989	1.03	0.955	0.916	0.918	1.03	0.533	0.586	0.547	0.461	0.539	0.746	0.666	0.767	0.686	0.575
RERF-LC-KJ	1.08	1.15	0.752	0.833	0.745	0.835	0.769	0.857	0.768	0.829	0.907	1.04	0.896	0.823	0.993	0.774	0.794	0.775	0.676	0.707
SK-LU-1	0.891	0.777	0.976	0.926	0.953	0.947	1.08	0.674	1.08	1.03	0.358	0.388	0.365	0.358	0.367	0.452	0.453	0.458	0.382	0.442
SK-MES-1	0.879	1.08	1.07	0.973	1.14	0.979	0.927	0.993	0.939	1.02	0.248	0.205	0.266	0.204	0.232	0.564	0.574	0.595	0.57	0.616
SW 1573	0.878	0.835	1.11	0.994	1.1	0.916	0.811	0.969	0.72	0.996	0.378	0.364	0.321	0.252	0.264	0.67	0.559	0.522	0.211	0.367
UMC-11	0.328	0.347	0.346	0.363	0.384	1.07	1.09	1.12	1.04	1.14	0.336	0.349	0.333	0.311	0.341	0.552	0.687	0.727	0.77	0.572
